Test system: gld-1(q485) germline tumors
Test: Germline tumor growth assay (DAPI-stained tumor area)
Format: in vivo, Caenorhabditis elegans
Conditions: 100 μM dose, four days treatment
Procedure: To assess the effects of methoxylation on antitumor activity in vivo, tumor area was measured in gld-1(q485) adults treated for four days with either resveratrol trimethylether, desoxyrhapontigenin or pterostilbene, which are methoxylated and toxic to adults, or resveratrol, which is hydroxylated and nontoxic. As controls, germline tumor area was also measured in animals treated with carrier only (ethanol) or with 5-fluoro-2'-deoxyuradine (FUDR), a thymidylate synthetase inhibitor that blocks cell proliferation. […] After four days of treatment, animals were collected and germline tumors were visualized by DAPI staining to visualize germcell nuclei. Because the level of DAPI staining was not quantitative between animals, we DAPI signal intensity was not used as a measure of tumor size. Rather, tumor size was directly measured as the area of the DAPI-stained gonad.
Resveratrol and picetannol were obtained from commercial sources (Sigma-Aldrich, Inc. and Calbiochem-Novobiochem Corp., respectively). The methoxylated stilbenes pinostilbene, desoxyrhapontigenin, 3-hydroxy-5,4'-dimethoxystilbene and pterostilbene (Figure 1) were synthesized by partial methylation of trans-resveratrol as previously reported. The methoxylated stilbenes were purified by preparative layer chromatography (Merck Silica gel 60 F254; EMD Chemicals Inc., Gibbstown, NJ) using the developing solvent chloroform:methanol (96:4) with 1% formic acid. The Rf values for pterostilbene, 3-hydroxy-5,4'-dimethoxystilbene, pinostilbene and desoxyrhapontigenin are 0.61, 0.57, 0.28, and 0.20, respectively. These stilbenes were identified from their ^1H-NMR spectra (Bruker 400 MHz; Bruker, Billerica, MA). All stilbenes were dissolved in ethanol to 25 mg/mL before use. 5-Fluoro-deoxyuracil (Sigma Chemical Co.) was dissolved to 1 mg/mL in sterile water and stored frozen at -20°C until use. For treating C. elegans adults, each compound was added in a 200 μL volume to the top of a 1-day old bacterial lawn grown on NGM medium to final concentrations as indicated. Compounds were allowed 2 hours to diffuse through the agar medium before animals were added.
The gld-1(q485) mutation causes a defect in oocyte development that results in growth of germline tumors that fill the somatic gonad, eventually leading to the animal's death. To examine the effects of the stilbenes on gld-1(q485) germline tumors, day 0 adults were placed on stilbene-containing medium in the presence of OP50 bacteria as food source. After 4 days at 20°C, animals were fixed in methanol and germcell nuclei were visualized by staining with DAPI. Images were collected with the entire animal in view using the 4× objective on a Nikon E800 microscope equipped with a Hamamatsu Orca ER CCD camera using OpenLab imaging software. NIH Image J software was used to measure germline tumor growth in treated and untreated animals. Tumor area was measured by outlining the entire DAPI-stained tumor.

COc1ccc(/C=C/c2cc(OC)cc(OC)c2)cc1 [Resveratrol-trimethylether, resveratrol-trimethylether]
effect on tumor size (in words): consistent reductions in tumor size
